In US20250320299A1, “BISPECIFIC DENDRITIC CELL ENGAGER AND USES THEREOF” (OBI PHARMA, INC., priority 2021, published 2025):

Assays:
[1] = tested on: Mouse 4T1 breast cancer cells; test: Exposure of endogenous danger signals (surface CRT, Hsp70) on tumor cells, flow cytometry; type: cell-based; settings: 100 μM Oxaliplatin for two days
4T1 breast cancer cells = settings: Oxaliplatin 5 mg/kg intravenous, BsAb 20 μg intratumor, days 7, 13 and 20; sacrificed Day 27
Method: 1×10^5 4T1 breast cancer cells was injected through subcutaneous injection (s.c. injection) on the right flank of mice in 100 μL sterile PBS. Five mice of each were randomized into three treatment groups on day 7 following tumor inoculation when the tumor size reached 50 mm^3. […] Tumor length, and width were recorded weekly. Tumor volumes were calculated using the formula: volume (mm^3)=([width]^2×length)/2. Results were shown as arithmetic meantstandard error of the mean (SEM). Statistical comparisons were performed by two-tailed Student's t-test. Significance set of probability “p” was set as the level at *p<0.05, **p<0.01, ***, p<0.001. […] Mice were sacrificed at Day 27.

[2] = tested on: Mouse 4T1 breast cancer cells; test: ATP release to supernatant, CellTiter-Glo Luminescent Assay; type: cell-based; settings: 100 μM Oxaliplatin for two days
Method: Furthermore, supernatants were collected and centrifuged then the ATP in the supernatant was determined by CellTiter-Glo® Luminescent Assay (Promega, Cat #G7570). Briefly, an equal volume of the collected supernatants and reagent were mixed and incubated in the dark for 10 minutes at room temperature. The luminescence was determined by a luminometer (MolecularDevice, SpectraMax L).

[3] = tested on: Mouse Pan T cells with co-cultured MutuDC 1940 cells and 4T1 cells; test: T cell proliferation primed by dendritic cell loaded with tumor cell; type: cell-based; settings: DCs cocultured with 4T1 cells treated with 100 μM Oxaliplatin, T cells 72 hours
Method: Then, cells were collected and counted. […] Cells were washed and counted. 5-fold Far Red labeled mouse Pan T cells were added to the co-cultured MutuDC 1940 cells and 4T1 cells for another 72 hours. […] Another CD8^+T-cell proliferation was calculated by gating on CD3^+/CD4^− cells and setting a marker that contained at least 98% of cells in unstimulated samples.

[4] = tested on: MutuDC 1940 cells and 4T1 cells; test: Dendritic cell-mediated phagocytosis of tumor cell; settings: 4T1 cells treated with 100 μM Oxaliplatin for two days; untreated 31.03%
Method: Mouse 4T1 breast cancer cells were labeled with CellTrace™ Far Red staining solution (ThermoFisher, Cat #C34564) at 37° C. for 30 minutes and then washed with PBS. Cells were seeded overnight in a 6-well plate. After cultivating overnight, cells were treated or not with 100 μM Oxaliplatin for two days. Then, cells were collected and counted. An equal number of MutuDC 1940 cells and 4T1 cells were mixed and incubated at 37° C. for the indicated time. After treatment, cells were collected and stained with anti-mouse CD11c-BV421 (Biolegend, Cat #117330) antibody at 4° C. for 30 minutes. Cells were washed and centrifuged, then analyzed by FACS CANTOII. 4T1 cell incorporation in MutuDC 1940 cells evaluated as the percentage of CD11c positive for far-red fluorescence incorporation.

[5] = tested on: oxaliplatin treated 4T1 cells; test: Cell binding assay (FACS) on oxaliplatin treated tumor cells; design: species or system mouse; settings: 30 nM antibody
[6] = target: T1, human CRT-ECD protein (OBI Pharma Inc., in-house produced) (human, UniProt P27797 18-417, limits assumed); test: ELISA, antigen coated at 200 ng per well, anti-mouse IgG-HRP detection
T1 construct: extracellular domain; Coated at 200 ng per well for ELISA; also called calreticulin
T1 sequence (looked up): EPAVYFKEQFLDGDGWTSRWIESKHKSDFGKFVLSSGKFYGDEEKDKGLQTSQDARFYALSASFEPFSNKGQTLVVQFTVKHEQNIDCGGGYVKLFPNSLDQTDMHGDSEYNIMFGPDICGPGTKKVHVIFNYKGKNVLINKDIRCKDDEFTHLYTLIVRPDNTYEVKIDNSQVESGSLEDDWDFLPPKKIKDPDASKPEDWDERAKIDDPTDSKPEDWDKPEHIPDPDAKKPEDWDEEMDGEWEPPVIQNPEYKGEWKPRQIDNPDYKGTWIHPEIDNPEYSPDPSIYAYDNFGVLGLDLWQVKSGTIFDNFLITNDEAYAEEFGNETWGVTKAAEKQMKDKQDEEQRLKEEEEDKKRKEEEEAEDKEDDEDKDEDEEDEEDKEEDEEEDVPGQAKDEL

## O=C1[O][Pt]2([NH][C@@H]3CCCC[C@H]3[NH]2)[O]C1=O [Oxaliplatin]
[1]; untreated 3.2%
  surface Hsp70 on live 4T1 cells: 11%
[1]; untreated 6.5%
  surface CRT on live 4T1 cells: 59%
4T1 breast cancer cells
  4T1 tumor growth versus control: no difference
[2]
  ATP released to the medium: increased
[3]
  proliferation of CD8+ T-cells: increased
[4]
  DC-mediated phagocytosis of 4T1 cells by MutuDC 1940 cells (percentage of CD11c positive for far-red): 43.3%

B1: α-CRT antibody 5B3-1 (OBI Pharma, Inc.) (antibody, V domains shown)
VH: EVQLVETGGGLVQPKGSLKLSCAASGFSFNNNAMNWVRQAPGKGLEWVARIRSKTNNYEIYYAESVKDRFTISRDDSQSMLYLQMNNLKTDDTAMYYCVRDYNHVGFVYWGQGTQVTVST
VL: DIVMTQTTPSVPVTPGESVSISCRSSKSLLYSNGNTYLYWFLQRPGQSPQLLIYRMSNLASGVPDRFSGSGSGTAFTLRISRVEAEDVGVYYCMQHLEYPFTFGAGTKLELK
notes: also called Anti-CRT (5B3-1)
[5]
  binding activity on oxaliplatin treated 4T1 cells: 41.2%
[6]
  EC50: 0.407 nM
